Earlier results as cited in US20110130710A1, “TREATMENT OF ABNORMAL OR EXCESSIVE SCARS” (priority 2007, published 2011).

B1: keratinocyte growth factor (protein, UniProt P21781 32-194, looked up)
Fibroblast growth factor 7: CNDMTPEQMATNVNCSSPERHTRSYDYMEGGDIRVRRLFCRTQWYLRIDKRGKVKGTQEMKNNYNIMEIRTVAVGIVAIKGVESEFYLAMNKEGKLYAKKECNEDCNFKELILENHYNTYASAKWTHNGGEMFVALNQKGIPVRGKKTKKEQKTAHFLPMAIT
notes: growth factor useful for wound healing

Experiments:
[1] = applied topically
epithelial tissue = conditions: about 50 μl, topical application

Molecule | effective dose of PDGF [1] | concentration of KGF that may be effective for wound healing (epithelial tissue)
platelet derived growth factor [PDGF] | ≥ 5 ng/mm^2 | 
B1 |  | about 5 μg/ml
